# Measurements taken from patent publication US8853228B2, “Heterocyclic analogs of propargyl-linked inhibitors of dihydrofolate reductase” (University of Connecticut, priority 2011, dated 2014).
# Read-outs that look alike come from different tables or passages of the source.
# Assays:
# ChDHFR-TS = ChDHFR-TS (Cryptosporidium hominis, UniProt Q27552); assay: ChDHFR enzyme inhibition assay; format: biochemical
# Method: (§1) Enzyme and inhibitor were allowed to incubate for 5 min before adding dihydrofolate to initiate the reaction. Enzyme assays were performed at least four times. IC50 values and their standard deviations were calculated in the presence of varying concentrations of inhibitor near the IC50 concentration.
# Compounds were evaluated in spectrophotometric enzyme assays using ChDHFR-TS and hDHFR. Inhibition constants (IC50) were measured (see Table 4). […] The compound abbreviations in Table 4 refer to the following compounds: […]
# hDHFR = hDHFR (Homo sapiens (Human), UniProt P00374); assay: hDHFR enzyme inhibition assay; format: biochemical; conditions: read-out: IC50 (hDHFR)
# Method: hDHFR: The gene for hDHFR was amplified using PCR from cDNA obtained from ATCC. The gene was inserted in a pET41 vector with a C-terminal histidine tag for affinity chromatography. The resulting construct was verified by sequencing. The hDHFR protein was expressed in E. coli and purified using a nickel affinity column.
# as §1
# (§2) Enzyme inhibition assays were performed by monitoring the rate of NADPH oxidation by the DHFR enzyme at an absorbance of 340 nm. Assays were performed in the presence of saturating concentrations of NADPH and initiated with dihydrofolate. All assays were completed at 25° C. in a buffer containing 20 mM TES pH 7.0, 50 mM KCl, 10 mM 2-mercaptoethanol, 0.5 mM EDTA and 1 mg/mL BSA. Inhibition was measured at least three times with inhibitor concentrations near the IC50 value and the average IC50 value is reported with a standard deviation.
# CgDHFR = CgDHFR (Candida glabrata (strain ATCC 2001 / BCRC 20586 / JCM 3761 / NBRC 0622 / NRRL Y-65 / CBS 138) (Yeast) (Nakaseomyces glabratus), UniProt Q6FPH0); assay: biochemical; conditions: for Selectivity: Table 7, hDHFR vs CgDHFR
# Source text: CgDHFR: The gene coding CgDHFR was amplified by PCR from C. glabrata genomic DNA obtained from ATCC. The gene was inserted in a pET41 vector that includes a C-terminal histidine tag for nickel affinity chromatography. E. coli cells were transformed and the resulting plasmid was verified by sequencing. The protein was expressed in E. coli BL21(DE3) cells with isopropyl β-D-thiogalactoside induction. Following growth, the cells were lysed with BugBuster (Novagen) and centrifuged; the supernatant was loaded on a Ni-NTA column. The column was washed with 20 mM Tris (pH 8.0)/0.4 M NaCl and the protein was eluted using a gradient of 20 mM Tris (pH 8.0), 0.3 M NaCl, 20% glycerol, 0.1 mM EDTA, 2 mM DTT, 250 mM imidazole. Fractions containing CgDHFR were identified by SDS-PAGE, combined and desalted using a PD-10 column with a buffer containing 20 mM Tris pH 8.0, 20% glycerol, 0.1 mM EDTA and 2 mM DTT. The protein was concentrated to 13 mg/mL.
# as §1
# C. glabrata = assay: Antifungal assay (MIC, Alamar Blue); format: cell-based, Candida glabrata; conditions: for MIC (Cg): YM media
# Method: Antifungal assays were performed using C. glabrata as a suspension in 50% glycerol at −78° C. For susceptibility testing, a streak of stock culture was made on SDA agar and grown at 30° C. for 48 h. One pure colony of the test organism was recovered from the plate, suspended in appropriate media and grown in a 5 mL shake flask culture. A sample of the shake flask culture was diluted to 1×10^5 cells/mL in media and added to 96-well test plates (100 μL per well) containing test compounds dispensed in DMSO (1 μL). Amphotericin and ketoconazole were used as controls. After an incubation period determined from the strain specific doubling time, Alamar Blue (10 μL) was added, allowed to incubate; each well was scored for dye reduction.
# Several representative compounds were also evaluated in thymidine-depleted media. It has been shown that high levels of thymidine interfere with accurate susceptibility testing of antifolates. To compensate for this, antifolates are frequently evaluated in a controlled minimal media with a low thymidine concentration. […] In addition, the compounds were also evaluated for mammalian cell toxicity using MCF-10 and HepG2 cell lines. Cellular selectivity is reported as the IC50 value for the MCF-10 human cell line divided by the MIC value (μg/mL) (Table 8).
# S. aureus 13709 (MRSA) = assay: Antibacterial MIC, broth microdilution with Alamar Blue; format: cell-based, Staphylococcus aureus; conditions: for MIC MRSA: Table 6
# Method: (§3) For susceptibility testing, 10 μL of glycerol stock was suspended in a 10 mL shake flask culture of chemically defined Isosensitest broth (Oxoid) supplemented with 2% w/v glucose. A sample of the shake flask culture was diluted to 1×10^6 cells/mL in media and added to 96-well test plates (100 μL per well) containing test compounds dispensed in DMSO (2 μL). After an incubation period (30° C.) determined from the strain specific doubling time, a 0.03% w/v aqueous solution of resazurin (10 μL) was added and the plates were allowed to incubate; each well was then scored for dye reduction.
# Streptococcus pyogenes = assay: as above; format: cell-based
# Method: as §3
# MCF-10 cells = assay: Mammalian cell toxicity, MCF-10; format: cell-based, human; conditions: cytotoxicity, Table 6
# Method: Adherent cell lines were maintained in Eagle's Minimal Essential Media (Sigma-Aldrich, St. Louis, Mo., USA) with 2 mM glutamine and Earle's Balanced Salt Solution (HyClone, Logan, Utah, USA) adjusted to contain 1.5 g/L sodium bicarbonate, 0.1 mM non-essential amino acids, 1 mM sodium pyruvate and 10% fetal calf serum. Fetal calf serum used in these assays was lot matched throughout. […] Toxicity assays were conducted between passages 10-20. Target compound toxicity was measured by incubating the test compound with the cells for 4 h, washing the cells and finally treating the cells with Alamar Blue. After 12-24 h, the fluorescence of the reduced dye was measured. Fluorescence intensity as a function of test compound concentration was fit to the Fermi equation, using non-linear least squares regression analysis, to estimate IC50 values.
# S. aureus DHFR = S. aureus DHFR (Staphylococcus aureus, UniProt P0A017); format: biochemical; conditions: average of at least three measurements
# Method: as §2
# S. pyogenes DHFR = S. pyogenes DHFR (Streptococcus pyogenes, UniProt Q9A091); assay: S. pyogenes DHFR enzyme inhibition assay; format: biochemical; conditions: average of at least three measurements
# Method: as §2
# [1] = Table 7, read-out: IC50 (CgDHFR)
# [2] = C. glabrata, Inact: not active at 2 mM (~600 μg/mL)
# [3] = Table 11, read-out: CgDHFR IC50
# [4] = Table 4, read-out: IC50 (ChDHFR)
# Sequence of CgDHFR (Q6FPH0 1-217): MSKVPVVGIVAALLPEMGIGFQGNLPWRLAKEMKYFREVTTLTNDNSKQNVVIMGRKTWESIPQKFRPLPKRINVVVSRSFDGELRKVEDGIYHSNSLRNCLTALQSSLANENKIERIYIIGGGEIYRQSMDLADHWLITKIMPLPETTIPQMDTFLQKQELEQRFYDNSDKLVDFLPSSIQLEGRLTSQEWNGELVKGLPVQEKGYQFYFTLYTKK
# Sequence of hDHFR (P00374 whole entry): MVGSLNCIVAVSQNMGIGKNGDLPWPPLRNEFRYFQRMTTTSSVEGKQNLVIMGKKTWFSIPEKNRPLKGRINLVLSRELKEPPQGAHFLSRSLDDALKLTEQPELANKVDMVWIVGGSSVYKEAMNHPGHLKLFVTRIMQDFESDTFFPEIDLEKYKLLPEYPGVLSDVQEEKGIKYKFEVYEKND
# Sequence of ChDHFR-TS (Q27552 1-521): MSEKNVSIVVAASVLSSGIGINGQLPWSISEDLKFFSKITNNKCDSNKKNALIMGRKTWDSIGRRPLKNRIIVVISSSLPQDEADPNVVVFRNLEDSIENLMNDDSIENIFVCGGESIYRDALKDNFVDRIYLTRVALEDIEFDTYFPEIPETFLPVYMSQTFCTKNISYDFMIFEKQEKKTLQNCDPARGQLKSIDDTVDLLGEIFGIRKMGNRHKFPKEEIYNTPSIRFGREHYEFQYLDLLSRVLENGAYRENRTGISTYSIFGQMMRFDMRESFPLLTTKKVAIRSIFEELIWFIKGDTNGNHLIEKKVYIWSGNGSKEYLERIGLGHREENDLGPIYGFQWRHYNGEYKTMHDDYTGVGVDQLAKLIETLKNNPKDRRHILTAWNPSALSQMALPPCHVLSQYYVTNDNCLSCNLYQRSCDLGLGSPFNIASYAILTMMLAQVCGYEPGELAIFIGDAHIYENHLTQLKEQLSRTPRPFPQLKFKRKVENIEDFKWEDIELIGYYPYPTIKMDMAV
# Sequence of S. pyogenes DHFR (Q9A091 1-165): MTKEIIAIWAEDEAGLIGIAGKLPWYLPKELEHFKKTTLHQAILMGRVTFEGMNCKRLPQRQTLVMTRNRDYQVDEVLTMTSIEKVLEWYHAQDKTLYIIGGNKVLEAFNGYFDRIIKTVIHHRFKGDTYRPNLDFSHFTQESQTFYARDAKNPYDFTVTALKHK
compound,measurement,setting,value
"CCC(c1cc(OC)c(OC)c(OC)c1)c1cnc(N)nc1N (racemic) [C7-ethyl TMP (rac), reference compound]",IC50,ChDHFR-TS; read-out: IC50 against ChDHFR,4000 nM
"COc1cc(C(C)c2cnc(N)nc2N)cc(OC)c1OC (racemic) [C7-methyl TMP (rac), reference compound]",IC50,ChDHFR-TS; read-out: IC50 against ChDHFR,340000 nM
CCc1nc(N)nc(N)c1C#CC(C)c1cc(OC)cc(N2C[C@@H](C)O[C@@H](C)C2)c1 (mixture of isomers) [Compound 157],IC50,hDHFR; Table 7,200 ± 4.5 nM
same,Selectivity,CgDHFR,5.0 ± 1
same,IC50,CgDHFR; [1],38 ± 2 nM
same,MIC (Cg),C. glabrata; C. glabrata,13 µg/mL
"COc1cc(-c2ccccc2)cc([C@H](C)C#Cc2c(C)nc(N)nc2N)c1 (single isomer, unassigned) [D (S), 5-[3-(5-methoxy-biphenyl-3-yl)but-1-yn-1-yl]-6-methylpyrimidine-2,4-diamine]",IC50,"ChDHFR-TS; IC50 (ChDHFR), Table 4",30 nM
"COc1cc(C(C)C#Cc2cnc(N)nc2N)cc(OC)c1OC (stereo not shown) [Compound 2, 2,4-Diamino-5-(3-(3,4,5-trimethoxyphenyl)but-1-ynyl)pyrimidine]",IC50,"CgDHFR; Table 3, read-out: CgDHFR IC50",36 nM
same,Antifungal activity MIC,C. glabrata; [2],Inact
"COc1cc(C(O)C#Cc2cnc(N)nc2N)cc(OC)c1OC (stereo not shown) [Compound 3, 3-(2,4-diaminopyrimidin-5-yl)-1-(3,4,5-trimethoxyphenyl)prop-2-yn-1-ol]",IC50,"CgDHFR; Table 3, read-out: CgDHFR IC50",2700 nM
same,MIC,"C. glabrata; Nakaseomyces glabratus, C. glabrata, Inact: not active at 2 mM (~600 μg/mL), read-out: Antifungal activity MIC",328 µg/mL
"COc1cc(C(C#Cc2cnc(N)nc2N)OC)cc(OC)c1OC (stereo not shown) [Compound 4, 5-[3-methoxy-3-(3,4,5-trimethoxyphenyl)prop-1-yn-1-yl]pyrimidine-2,4-diamine]",IC50,"CgDHFR; Table 3, read-out: CgDHFR IC50",450 nM
same,Antifungal activity MIC,C. glabrata; [2],Inact
"COc1cc(C(O)C#Cc2c(C)nc(N)nc2N)cc(OC)c1OC (stereo not shown) [Compound 7, 3-(2,4-diamino-6-methylpyrimidin-5-yl)-1-(3,4,5-trimethoxyphenyl)prop-2-yn-1-ol]",IC50,"CgDHFR; CgDHFR IC50, Table 3",39 nM
same,Antifungal activity MIC,C. glabrata; [2],Inact
"COc1cc(C(C#Cc2c(C)nc(N)nc2N)OC)cc(OC)c1OC (stereo not shown) [Compound 8, 5-[3-methoxy-3-(3,4,5-trimethoxyphenyl)prop-1-yn-1-yl]-6-methylpyrimidine-2,4-diamine]",IC50,"CgDHFR; CgDHFR IC50, Table 3",30 nM
same,Antifungal activity MIC,C. glabrata; [2],Inact
COc1ccc(OC)c(CC#Cc2cnc(N)nc2N)c1 [Compound 9],IC50,"CgDHFR; Table 3, read-out: CgDHFR IC50",21 nM
same,IC50,CgDHFR; read-out: IC50 against CgDHFR,≤ 25 nM
same,Antifungal activity MIC,C. glabrata; [2],72 µg/mL
COc1ccc(OC)c(CC#Cc2c(C)nc(N)nc2N)c1 [Compound 10],IC50,"CgDHFR; Table 3, read-out: CgDHFR IC50",32 nM
same,Antifungal activity MIC,C. glabrata; [2],56 µg/mL
CCc1nc(N)nc(N)c1C#CCc1cc(OC)ccc1OC [Compound 11],IC50,"CgDHFR; Table 3, read-out: CgDHFR IC50",8.2 nM
same,IC50,CgDHFR; read-out: IC50 against CgDHFR,≤ 25 nM
same,Antifungal activity MIC,C. glabrata; [2],78 µg/mL
COc1cc(-c2cc(C)cc(C)c2)cc([C@@H](C)C#Cc2c(C)nc(N)nc2N)c1 [Compound 140],IC50 against CgDHFR,CgDHFR,subnanomolar
same,IC50,CgDHFR; [1],0.55 ± 0.3 nM
same,IC50,CgDHFR; [3],0.55 nM
same,MIC (Cg),C. glabrata; C. glabrata,3.1 µg/mL
same,Antifungal activity MIC,"C. glabrata; Table 11, C. glabrata",3 µg/mL
same,MIC S. aureus / MRSA,S. aureus 13709 (MRSA),5.8 µg/mL
same,MIC MRSA,S. aureus 13709 (MRSA),5.76 µg/mL
same,MIC S. pyogenes,Streptococcus pyogenes,0.1 µg/mL
same,MIC S. pyogenes,Streptococcus pyogenes; Table 6,0.097 µg/mL
same,IC50,MCF-10 cells,47000 nM
COc1cc(-c2ccc(C)cc2)cc([C@@H](C)C#Cc2c(C)nc(N)nc2N)c1 [Compound 141],IC50 against CgDHFR,CgDHFR,subnanomolar
same,IC50,CgDHFR; [1],0.6 ± 0.3 nM
same,IC50,CgDHFR; [3],0.6 nM
same,MIC (Cg),C. glabrata; C. glabrata,1.5 µg/mL
same,Antifungal activity MIC,"C. glabrata; Table 11, C. glabrata",1.5 µg/mL
same,IC50,S. aureus DHFR,410 ± 36 nM
same,IC50,S. pyogenes DHFR,350 ± 44 nM
same,MIC MRSA,S. aureus 13709 (MRSA),0.71 µg/mL
same,MIC S. pyogenes,Streptococcus pyogenes; Table 6,0.024 µg/mL
same,IC50,MCF-10 cells,55000 nM
COc1cc(C(C)C#Cc2c(C)nc(N)nc2N)cc(N2CCN(C)CC2)c1 (stereo not shown) [Compound 158],IC50,hDHFR; Table 7,280 ± 17 nM
same,Selectivity,CgDHFR,9 ± 1
same,IC50,CgDHFR; [1],30 ± 3 nM
same,MIC (Cg),C. glabrata; C. glabrata,95 µg/mL
"COc1cc(-c2ccccc2C)cc(C(C)C#Cc2c(C)nc(N)nc2N)c1 (stereo not shown) [Compound D6M, 5-[3-(5-methoxy-6′-methylbiphenyl-3-yl)but-1-yn-1-yl]-6-methylpyrimidine-2,4-diamine]",IC50,ChDHFR-TS; [4],2.1 ± 0.3 nM
"COc1cc(-c2c(C(C)C)cccc2C(C)C)cc(C(C)C#Cc2c(C)nc(N)nc2N)c1 (stereo not shown) [Compound D26I, 5-[3-(5-methoxy-2′6′-diisopropylbiphenyl-3-yl)but-1-yn-1-yl]-6-methylpyrimidine-2,4-diamine]",IC50,ChDHFR-TS; [4],10 nM
"COc1cc(-c2c(C)cccc2C)cc(C(C)C#Cc2c(C)nc(N)nc2N)c1 (stereo not shown) [Compound D26M, 5-[3-(5-methoxy-2′6′-dimethylbiphenyl-3-yl)but-1-yn-1-yl]-6-methylpyrimidine-2,4-diamine]",IC50,ChDHFR-TS; [4],2.1 ± 0.5 nM
"COc1cc(-c2ccccc2C)ccc1C(C)C#Cc1c(C)nc(N)nc1N (stereo not shown) [Compound F2M, 5-[3-(3-methoxy-2′-methylbiphenyl-4-yl)but-1-yn-1-yl]-6-methylpyrimidine-2,4-diamine]",IC50,"ChDHFR-TS; IC50 (ChDHFR), Table 4",36 ± 0.6 nM
same,Selectivity Ratio (IC50 ChDHFR/IC50 hDHFR),ChDHFR-TS; Table 4,77
"COc1cc(-c2c(C)cccc2C)ccc1C(C)C#Cc1c(C)nc(N)nc1N (stereo not shown) [Compound F26M, 5-[3-(3-methoxy-2′6′-dimethylbiphenyl-4-yl)but-1-yn-1-yl]-6-methylpyrimidine-2,4-diamine]",Selectivity Ratio (IC50 ChDHFR/IC50 hDHFR),ChDHFR-TS; Table 4,455
same,IC50,ChDHFR-TS; [4],7.4 ± 1.9 nM
same,IC50,hDHFR; Table 4,3370 ± 15 nM
"CN(Cc1cnc2nc(N)nc(N)c2n1)c1ccc(C(=O)N[C@@H](CCC(=O)O)C(=O)O)cc1 [methotrexate, (S)-2-(4-(((2,4-diaminopteridin-6-yl)methyl)methylamino)benzamido)pentanedioic acid, reference compound]",IC50,ChDHFR-TS; IC50 against ChDHFR,23 nM
